From EP0007019A1, “5-Phenyl-pyrazole derivatives and their salts, processes for their preparation and medicines containing them” (Kali-Chemie Pharma GmbH, priority 1978, dated 1980)
Where two headings read alike, the source gives them in different places.

What was measured:
Format in all cases: in vivo
[1] = Acute 7-day toxicity after a single administration (LD50, probit analysis); details: in vivo, single administration, fasted NMRI mouse, 7 days
From the text: (§1) Die akute 7-Tage-Toxizität wurde nach einmaliger Applikation an der weißen, nüchternen NMRI-Maus bestimmt.

[2] = test system: Sprague-Dawley-Ratten mit diätetischer Hyperlipidämie; assay: Lipid-lowering effect in rats with dietary hyperlipidaemia, 4 weeks p.o., compared with Clofibrat; liver weight; details: for Serum Gesamt-Cholesterin / Serum Triglyceride / Lebergewicht: 4 Wochen; for Serum Gesamt-Cholesterin: 20 animals per group, Kontrolle 15,2 ± 2,4; for Serum Triglyceride: Kontrolle 1,04 ± 0,34; for Lebergewicht: Kontrolle 7,3 ± 0,7
Procedure: Die Testsubstanz wurde über einen Zeitraum von 4 Wochen in Dosierungen von 100 und 200 mg/kg Körpergewicht p.o. täglich per Magensonde in 10 ml einer 1%-igen Traganth-Lösung verabreicht. Clofibrat wurde entsprechend in Dosierungen von 100 und 200 mg/kg gegeben. Die Kontrolltiere erhielten 10 ml der Trägerflüssigkeit Traganth/kg Körpergewicht per Magensonde.
Jede Gruppe bestand aus 20 Tieren; das Gewicht der Leber wurde festgestellt und verglichen.
Die Blutentnahme erfolgte im Ätherrausch aus dem retrobulbären Venenplexus.
Ausgeführt wurden Varianzanalyse und Student-t-Test. Als Signifikanzgrenze diente p≤0,01.

unbehandelten Ratte = assay: Determination of triglyceride lowering in the untreated rat over 4 days; details: po, 96 h, 200 mg/kg per Magensonde, 4 Tage, serum triglycerides, percent versus control, 10 animals per group, read-out: Triglyceridsenkung in %
Procedure: Die Verbindungen wurden auf triglyceridsenkende Eigenschaften an der unbehandelten Ratte über einen Zeitraum von 4 Tagen untersucht. Die Substanzen wurden in der Dosierung von 200 mg/kg per Magensonde in 5 ml 1%-iger Traganth-Lösung appliziert. Die Blutentnahme erfolgte im Ätherrausch aus dem retrobulbären Venenplexus. Die Serumtriglyceride wurden nach Eggstein und Kreutz (Klin. Wschr. 44, 262 (1966)) bestimmt. Jede Gruppe bestand aus 10 Tieren. Die statistische Prüfung erfolgte nach dem Student-t-Test. Als Signifikanzgrenze diente p ≤0,01.
Die Triglyceridsenkung durch die untersuchten Substanzen in Prozent gegenüber der Kontrolle ist der Tabelle 2 zu entnehmen.

NMRI-Maus = assay: Acute 7-day toxicity after a single administration (LD50, probit analysis); details: for Toxizität: statement in words, test not specified
From the text: as §1

Versuchstieren = assay: PCA test (passive cutaneous anaphylaxis reaction), peroral
From the text: Die neuen Verbindungen eignen sich insbesondere aufgrund ihrer oralen antianaphylaktischen Wirksamkeit zur Behandlung von allergischen Reaktionen.

[3] = 100 mg/kg p.o. täglich, mean ± spread

For CCOC(=O)C(C)(C)Oc1ccc(Cl)cc1 [Clofibrat, a-(p-Chlorphenoxy)-a-methyl-propionsäureäthylester, reference compound], which LD50 at 168 h ([1]; ip, read-out: LD50 i.p.) is on record?
Its LD50 at 168 h is 566 mg/kg.

What about the LD50 at 168 h ([1]; po, read-out: LD50 p.o.) of the same compound?
Its LD50 at 168 h is > 1470 mg/kg.

What about the “Serum Gesamt-Cholesterin” value [2, 3] of the same compound?
Its value is 6,9 ± 2,1 mmol/l.

And the “Serum Triglyceride” value ([2]; 100 mg/kg p.o. täglich)?
The value was 0,90 ± 0,16 mmol/l.

What about the Lebergewicht ([2]; 100 mg/kg p.o. täglich) of the same compound?
The Lebergewicht was 8,2 ± 0,9 g/100 g.

What about the “Serum Gesamt-Cholesterin” value ([2]; 200 mg/kg p.o. täglich) of the same compound?
Its value is 5,9 ± 1,7 mmol/l.

What about the “Serum Triglyceride” value ([2]; 200 mg/kg p.o. täglich) of the same compound?
The value was 0,86 ± 0,66 mmol/l.

And the Lebergewicht ([2]; 200 mg/kg p.o. täglich)?
The Lebergewicht was 8,2 ± 0,7 g/100 g.

For CC(C)(Oc1cc(-c2ccc(Cl)cc2)n(Cc2ccccc2)n1)C(N)=O [Substanz Nr. 5, 1-Benzyl-5-(4-chlorphenyl)-3-(2-aminocarbonyl-propyl-2-oxy)-pyrazol], which inhibition in vivo at 200 mg/kg (unbehandelten Ratte) is on record?
Its inhibition in vivo at 200 mg/kg is 15%.

Which inhibition in vivo at 200 mg/kg (unbehandelten Ratte) does the source give for CC(C)(Oc1cc(-c2ccc(Cl)cc2)[nH]n1)C(N)=O [Substanz Nr. 4, 5-(4-Chlorphenyl)-3-(2-aminocarbonylpropyl-2-oxy)-pyrazol] here?
Its inhibition in vivo at 200 mg/kg is 15%.

With CCOC(=O)C(C)(C)Oc1cc(-c2ccccc2)[nH]n1 [Substanz Nr. 7, 5-Phenyl-3-(2-äthoxycarbonylpropyl-2-oxy)-pyrazol] as the compound, how does the inhibition in vivo at 200 mg/kg (unbehandelten Ratte) read?
The inhibition in vivo at 200 mg/kg was 25%.

Which LD50 at 168 h ([1]; ip, read-out: LD50 i.p.) does the source give for CC(C)(Oc1cc(-c2ccc(Cl)cc2)n(-c2ccccc2)n1)C(N)=O [Substanz Nr. 2, 1-Phenyl-5-(4-chlorphenyl)-3-(2-aminocarbonyl-propyl-2-oxy)-pyrazol] here?
The LD50 at 168 h was > 100 mg/kg.

And the LD50 at 168 h ([1]; po, read-out: LD50 p.o.)?
The LD50 at 168 h was > 1470 mg/kg.

And the inhibition in vivo at 200 mg/kg (unbehandelten Ratte)?
The inhibition in vivo at 200 mg/kg was 20%.

With CC(C)(Oc1cc(-c2cccc(Cl)c2)n(-c2ccccc2)n1)C(N)=O [Substanz Nr. 3, 1-Phenyl-5-(3-chlorphenyl)-3-(2-aminocarbonyl-propyl-2-oxy)-pyrazol] as the compound, how does the inhibition in vivo at 200 mg/kg (unbehandelten Ratte) read?
Its inhibition in vivo at 200 mg/kg is 30%.

For CC(C)(Oc1cc(-c2ccccc2)[nH]n1)C(N)=O [Substanz Nr. 1, 5-Phenyl-3-(2-aminocarbonylpropyl-2-oxy)-pyrazol], which inhibition in vivo at 200 mg/kg (unbehandelten Ratte) is on record?
The inhibition in vivo at 200 mg/kg was 15%.

With CCOC(=O)C(C)(C)Oc1cc(-c2ccc(Cl)cc2)n(-c2ccccc2)n1 [Substanz Nr. 6, 1-Phenyl-5-(4-chlorphenyl)-3-(2-äthoxycarbonyl-propyl-2-oxy)-pyrazol] as the compound, how does the inhibition in vivo at 200 mg/kg (unbehandelten Ratte) read?
The inhibition in vivo at 200 mg/kg was 20%.

Which results are given for CC(C)(Oc1cc(-c2ccccc2)[nH]n1)C(=O)O [5-Phenyl-3-(2-hydroxycarbonylpropyl-2-oxy)-pyrazol]?
Toxizität (NMRI-Maus): geringer Toxizität; perorale antianaphylaktische Wirksamkeit (Versuchstieren): ausgeprägte perorale antianaphylaktische Wirksamkeit

What does the source list for “1,5-Diphenyl-3-(2-äthoxycarbonylpropyl-2-oxy)-pyrazol [Beispiel 1]”?
LD50 i.p. (NMRI-Maus; i.p., single administration, fasted NMRI mouse, 7 days): 684 mg/kg; LD50 p.o. (NMRI-Maus; p.o., single administration, fasted NMRI mouse, 7 days): >1470 mg/kg

For CC(C)(Oc1cc(-c2ccccc2)n(-c2ccccc2)n1)C(N)=O [Substanz A, 1,5-Diphenyl-3-(2-aminocarbonylpropyl-2-oxy)-pyrazol], which LD50 at 168 h ([1]; ip, read-out: LD50 i.p.) is on record?
Its LD50 at 168 h is 571 mg/kg.

And the LD50 at 168 h ([1]; po, read-out: LD50 p.o.)?
Its LD50 at 168 h is > 1470 mg/kg.

What about the “Serum Gesamt-Cholesterin” value [2, 3] of the same compound?
Its value is 6,8 ± 2,4 mmol/l.

What about the “Serum Triglyceride” value ([2]; 100 mg/kg p.o. täglich) of the same compound?
Its value is 0,83 ± 0,20 mmol/l.

And the Lebergewicht ([2]; 100 mg/kg p.o. täglich)?
The Lebergewicht was 7,2 ± 0,6 g/100 g.

What about the “Serum Gesamt-Cholesterin” value ([2]; 200 mg/kg p.o. täglich) of the same compound?
The value was 5,5 ± 1,4 mmol/l.

And the “Serum Triglyceride” value ([2]; 200 mg/kg p.o. täglich)?
Its value is 0,70 ± 0,16 mmol/l.

What about the Lebergewicht ([2]; 200 mg/kg p.o. täglich) of the same compound?
The Lebergewicht was 7,4 ± 0,7 g/100 g.

What about the “Veränderungen der Leber (Zunahme des Lebergewichtes, Leberzellvergrößerung)” value ([2]; 4 Wochen p.o., 100 and 200 mg/kg) of the same compound?
Its value is “keinerlei Veränderungen der Leber”.

Which inhibition in vivo at 200 mg/kg (unbehandelten Ratte) does the source give for CC(C)(Oc1cc(-c2ccccc2)n(-c2ccccc2)n1)C(=O)O [Substanz Nr. 8, 1,5-Diphenyl-3-(2-hydroxycarbonylpropyl-2-oxy)-pyrazol] here?
The inhibition in vivo at 200 mg/kg was 30%.

For CC(C)(Oc1cc(-c2ccc(Cl)cc2)[nH]n1)C(=O)O [5-(4-Chlorphenyl)-3-(2-hydroxycarbonylpropyl-2-oxy)-pyrazol], which Toxizität (NMRI-Maus) is on record?
The Toxizität was “geringer Toxizität”.

What about the “perorale antianaphylaktische Wirksamkeit” value (Versuchstieren) of the same compound?
Its value is “ausgeprägte perorale antianaphylaktische Wirksamkeit”.
